Results as given in patent US5185363A, “Urea based lipoxygenase inhibiting compounds” (Abbott Laboratories, priority 1991, dated 1993).

molecular target: T1, 5-Lipoxygenase from RBL-1 20,000 xg Supernatant (Rattus norvegicus, UniProt P12527); experiment: In vitro inhibition of 5-lipoxygenase from RBL-1 20,000 xg supernatant; format: biochemical; conditions: radiolabeled arachidonic acid
T1 construct: supermatant from 1.5 million homogenized RBL-1 cells; endogenous in cells; host or cells: RBL-1 cells, 20,000 x g supernatant of homogenate
T1 sequence (P12527 1-673): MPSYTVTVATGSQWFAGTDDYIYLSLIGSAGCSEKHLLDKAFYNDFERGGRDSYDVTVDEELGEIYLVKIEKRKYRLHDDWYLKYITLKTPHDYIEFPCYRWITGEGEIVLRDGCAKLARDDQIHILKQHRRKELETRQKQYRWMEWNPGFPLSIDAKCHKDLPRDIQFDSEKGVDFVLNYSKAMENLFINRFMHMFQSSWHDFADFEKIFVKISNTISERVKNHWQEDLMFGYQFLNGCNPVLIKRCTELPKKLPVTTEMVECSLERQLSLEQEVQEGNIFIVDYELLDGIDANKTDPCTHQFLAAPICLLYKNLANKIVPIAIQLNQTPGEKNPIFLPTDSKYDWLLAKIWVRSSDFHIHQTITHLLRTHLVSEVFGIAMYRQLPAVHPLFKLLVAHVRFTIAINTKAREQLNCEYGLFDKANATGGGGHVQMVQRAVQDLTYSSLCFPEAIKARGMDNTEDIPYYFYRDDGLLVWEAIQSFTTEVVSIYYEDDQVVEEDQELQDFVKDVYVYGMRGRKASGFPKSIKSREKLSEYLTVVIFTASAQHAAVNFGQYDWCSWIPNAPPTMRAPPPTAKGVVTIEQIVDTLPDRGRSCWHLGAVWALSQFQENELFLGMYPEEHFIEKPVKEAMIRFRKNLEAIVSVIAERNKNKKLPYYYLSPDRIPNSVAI
Experimental: Assays to determine 5-lipoxygenase inhibitory activity were performed in […] incubations containing the 20,000xg supermatant from 1.5 million homogenized RBL-1 cells and various concentrations of the test compound. Reactions were initiated by addition of radiolabeled arachidonic acid and terminated by acidification and ether extraction. Reaction products were separated from nonconverted substrate by thin layer chromatography and measured by liquid scintillation spectroscopy. All incubations are performed in triplicate. Inhibition of 5-lipoxygenase activity was calculated as the ratio of the amount of product formed in the presence and absence of inhibitor. […] (Dyer, R.D.; Haviv, F.; Hanel, A. M.; Bornemier, D. A.; Carter, G. W. Fed. Proc., Fed. Am. Soc. Exp. Biol. 1984, 43, 1462A).

| Structure (SMILES) | IC50 |
| --- | --- |
| CNC(=O)N(O)C(C)c1ccc(OCc2ccccc2)cc1 (stereo not drawn) [Example 2, N-hydroxy-N-1-(4-phenylmethoxyphenyl) ethyl N'-methyl urea] | 370 nM |
| CC(c1ccc(OCc2ccccc2)cc1)N(O)C(=O)N(C)C (stereo not drawn) [Example 3] | 680 nM |
| CNC(=O)N(O)Cc1ccc(OCc2ccccc2)cc1 [Example 6, N-hydroxy-N-(4-phenylmethoxyphenylmethyl)-N'-methyl-urea] | 540 nM |
| CC(c1ccc2ccccc2c1)N(O)C(=O)NO (stereo not drawn) [Example 10, N,N'-dihydroxy-N-(1-(2-naphthyl)ethyl) urea] | 870 nM |
| CCCCOc1ccc(C(C)N(O)C(N)=O)cc1 (stereo not drawn) [Example 11, N-hydroxy-N-(1-(4-butoxyphenyl)ethyl) urea] | 1100 nM |
| CCCCOc1cccc(C(C)N(O)C(N)=O)c1 (stereo not drawn) [Example 13, N-hydroxy-N-(1-(3-butoxyphenyl)ethyl) urea] | 2800 nM |
| CNC(=O)N(O)Cc1ccc(C)s1 [Example 52, N-hydroxy-N-1-(5-methylthien-2-yl)methyl-N'-methyl urea] | 3900 nM |
| NC(=O)N(O)Cc1ccc(-c2ccccc2)s1 [Example 53, N-hydroxy-N-(1-(5-phenylthien-2-yl)methyl) urea] | 200 nM |
| CNC(=O)N(O)Cc1ccc(-c2ccccc2)s1 [Example 54, N-hydroxy-N-(1-(5-phenylthien-2-yl)methyl)-N'-methyl urea] | 310 nM |
| CCOC(=O)CNC(=O)N(O)C(C)c1cc(C)sc1C (stereo not drawn) [Example 59] | 990 nM |
| Cc1cc(C(C)N(O)C(=O)NCCO)c(C)s1 (stereo not drawn) [Example 60, N-hydroxy-N-(1-(2,5-dimethylthien-3-yl)ethyl)-N'-(2-hydroxyethyl) urea] | 3500 nM |
| COC(=O)CCCNC(=O)N(O)C(C)c1ccsc1 (stereo not drawn) [Example 61] | 2100 nM |
| CNC(=O)N(O)C(C)c1ccc(Cl)cc1 (stereo not drawn) [Example 108, N-Hydroxy-N-(1-(4-chlorophenyl)ethyl)-N'-methyl urea] | 400 nM |
| CNC(=O)N(O)C(C)c1ccc(F)cc1 (stereo not drawn) [Example 110, N-Hydroxy-N-(1-(4-fluorophenyl)ethyl)-N'-methyl urea] | 2300 nM |
| CNC(=O)N(O)C(C)c1ccc(OC)cc1 (stereo not drawn) [Example 117, N-Hydroxy-N-(1-(4-methoxyphenyl)ethyl)-N'-methyl urea] | 4430 nM |
| CCCCOc1ccc(C(C)N(O)C(N)=O)cc1 (stereo not drawn) [Example 119, N-Hydroxy-N-(1-(4-butoxyphenyl)ethyl) urea] | 530 nM |
| NC(=O)N(O)Cc1cccc(Oc2ccccc2)c1 [Example 125] | 400 nM |
| CNC(=O)N(O)Cc1cccc(Oc2ccccc2)c1 [Example 126] | 800 nM |
| NC(=O)N(O)Cc1ccc(Sc2ccccc2)s1 [Example 135, N-hydroxy-N-[5-(phenylthio)thien-2-yl]methyl urea] | 200 nM |
| NC(=O)N(O)Cc1sccc1Sc1ccc(O)cc1 [Example 140, N-hydroxy-N-[3-(4-hydroxyphenylthio)thien-2-yl]methyl urea] | 400 nM |
| NC(=O)N(O)Cc1sccc1Sc1ccc(Cl)cc1 [Example 142, N-hydroxy-N-[3-(4-chlorophenylthio)thien-2-yl]methyl urea] | 300 nM |
| NC(=O)N(O)Cc1sccc1Sc1ccc(F)cc1 [Example 143, N-hydroxy-N-[3-(4-fluorophenylthio)thien-2-yl]methyl urea] | 300 nM |
| CC(C)(C)c1ccc(Sc2ccsc2CN(O)C(N)=O)cc1 [Example 144, N-hydroxy-N-[3-(4-tertbutylphenylthio)thien-2-yl]methyl urea] | 200 nM |
| NC(=O)N(O)Cc1sccc1SCc1ccco1 [Example 146, N-hydroxy-N-[3-(2-furfurylmethylthio)thien-2-yl]methyl urea] | 700 nM |
| CC(C)(C)Sc1ccc(CN(O)C(N)=O)s1 [Example 148, N-hydroxy-N-[5-(tertbutylthio)thien-2-yl]methyl urea] | 300 nM |

Now from value to compound:

| IC50 | Structure (SMILES) |
| --- | --- |
| 330 nM | CC(c1ccc(OCCc2ccccc2)cc1)N(O)C(N)=O (stereo not drawn) [Example 8, N-hydroxy-N-(1-(4-(2-phenyl)ethoxyphenyl)ethyl) urea] |
| 2100 nM | Cc1ccsc1C(C)N(O)C(N)=O (stereo not drawn) [Example 46, N-hydroxy-N-1-(3-methylthien-2-yl)ethyl urea] |
| 1700 nM | CC(c1ccc(-c2ccccn2)s1)N(O)C(N)=O (stereo not drawn) [Example 48, N-hydroxy-N-(1-(5-pyrid-2-yl)thien-2-yl)ethyl urea] |
| 420 nM | CC(c1ccc(Cc2ccccc2)s1)N(O)C(N)=O (stereo not drawn) [Example 57, N-hydoxy-N-(1-(5-benzylthien-2-yl)ethyl) urea] |
| 4200 nM | CCOC(=O)CNC(=O)N(O)C(C)c1ccsc1 (stereo not drawn) [Example 62] |
| 1500 nM | NC(=O)N(O)CCCc1ccsc1 [Example 69, N-hydroxy-N-(3-(1-thien-3-yl)propyl) urea] |
| 800 nM | Cc1ccc(CC(C)N(O)C(N)=O)s1 (stereo not drawn) [Example 72, N-Hydroxy-N-(2-(1-(5-methylthien-2-yl))propyl) urea] |
| 1100 nM | CNC(=O)N(O)C(C)c1ccc(Br)cc1 (stereo not drawn) [Example 98, N-Hydroxy-N-1-(4-bromophenyl)ethyl-N'-methyl-urea] |
| 3900 nM | CNC(=O)N(O)C(C)c1ccc(F)cc1F (stereo not drawn) [Example 104, N-Hydroxy-N-(1-(2,4-difluorophenyl)ethyl)-N'-methylurea] |
| 900 nM | CNC(=O)N(O)C(C)c1ccc(F)c(Br)c1 (stereo not drawn) [Example 114, N-Hydroxy-N-(1-(3-bromo-4-fluorophenyl)ethyl)-N'-methyl urea] |
| 600 nM | CNC(=O)N(O)C(C)c1ccc(C)c(Br)c1 (stereo not drawn) [Example 115, N-Hydroxy-N-(1-(3-bromo-4-methylphenyl)ethyl)-N'-methyl urea] |
| 4400 nM | COc1ccc(C(C)N(O)C(N)=O)cc1 (stereo not drawn) [Example 116, N-Hydroxy-N-(1-(4-methoxyphenyl)ethyl) urea] |
| 740 nM | C=CCN(CC=C)c1ccc(C(C)N(O)C(N)=O)cc1 (stereo not drawn) [Example 121, N-Hydroxy-N-(1-(4-bis-allylaminophenyl)ethyl) urea] |
| 800 nM | CC(c1ccc(F)c(Br)c1)N(O)C(N)=O (stereo not drawn) [Example 122, N-Hydroxy-N-(1-(3-bromo-4-fluorophenyl)ethyl) urea] |
| 500 nM | Cc1cc(C(C)N(O)C(N)=O)ccc1Cl (stereo not drawn) [Example 123, N-Hydroxy-N-(1-(4-chloro-3-methylphenyl)ethyl) urea] |
| 600 nM | CNC(=O)N(O)C(C)c1ccc(Cl)c(C)c1 (stereo not drawn) [Example 124, N-Hydroxy-N-(1-(4-chloro-3-methylphenyl)ethyl)-N'-methyl urea] |
| 1200 nM | NC(=O)N(O)Cc1sccc1Br [Example 127, N-hydroxy-N-(3-bromothien-2-yl)methyl urea] |
| 2500 nM | NC(=O)N(O)Cc1cc(Br)cs1 [Example 128, N-hydroxy-N-(4-bromothien-2-yl)methyl urea] |
| 2000 nM | NC(=O)N(O)Cc1ccc(Cl)s1 [Example 129, N-hydroxy-N-(5-chlorothien-2-yl)methyl urea] |
| 900 nM | NC(=O)N(O)Cc1ccc(Br)s1 [Example 130, N-hydroxy-N-(5-bromothien-2-yl)methyl urea] |
| 900 nM | CC(c1cc(Br)cs1)N(O)C(N)=O (stereo not drawn) [Example 132, N-hydroxy-N-[1-(4-bromothien-2-yl)ethyl]urea] |
| 900 nM | CC(c1ccc(Br)s1)N(O)C(N)=O (stereo not drawn) [Example 133, N-hydroxy-N-[1-(5-bromothien-2-yl)ethyl]urea] |
| 300 nM | NC(=O)N(O)Cc1sccc1Sc1ccccc1 [Example 134, N-hydroxy-N-[3-(phenylthio)thien-2-yl]methyl urea] |
| 400 nM | NC(=O)N(O)Cc1csc(Sc2ccccc2)c1 [Example 137, N-hydroxy-N-[5-(phenylthio)thien-3-yl]methyl urea] |
| 400 nM | CC(c1ccc(Sc2ccccc2)s1)N(O)C(N)=O (stereo not drawn) [Example 139, N-hydroxy-N-[1-(5-(phenylthio)-thien-2-yl)ethyl]urea] |
| 200 nM | NC(=O)N(O)Cc1sccc1Sc1ccc(Br)cc1 [Example 141, N-hydroxy-N-[3-(4-bromophenylthio)thien-2-yl]methyl urea] |
| 1500 nM | NC(=O)N(O)Cc1sccc1Sc1ccccn1 [Example 145, N-hydroxy-N-[3-(2-pyridylthio)thien-2-yl]methyl urea] |
| 3700 nM | CC(C)(C)Sc1ccsc1CN(O)C(N)=O [Example 147, N-hydroxy-N-[3-(tertbutylthio)thien-2-yl]methyl urea] |
| 800 nM | CC(c1ccc(SC(C)(C)C)s1)N(O)C(N)=O (stereo not drawn) [Example 149, N-hydroxy-N-[1-(5-{terbutylthio}thien-2-yl)ethyl]urea] |
